{
  "source": "patent US11459547B2",
  "about": "“Method for producing osteoblast cluster using human iPS cells” (priority 2017, dated 2022)",
  "assay_type_in_all_cases": "cell-based",
  "key": {"[1]": {"test_system": "human iPS cell embryoid bodies (409B2)", "assay": "Mesoderm differentiation induction of iPS cell embryoid bodies, immunofluorescent staining of mesodermal marker Brachyury", "settings": "embryoid body formation 1 day, then static culture 5 days in mesoderm differentiation induction medium with 30 CHIR99021 and/or 5 cyclopamine; the label names the compound(s) present", "method": "The iPS cells were washed with phosphate buffered saline (PBS), and treated with 1 ml of a CTK solution (0.25% trypsin, 0.1 mg/ml collagenase IV, 10 mM CaCl2), 20% KSR) at 37° C. for 1 minute. After that, the CTK solution was removed by aspiration, and 1 ml of PBS was added. PBS was removed, and only the feeder cells exfoliated from the culture plate were removed by aspiration as much as possible. After that, adherent iPS cells remaining in the culture plate were collected using 5 ml of ES medium (RCHEMD001) supplemented with 4 ng/ml FGF. The resultant cell suspension was transferred to a low-attachment culture dish (Thermo Fisher Scientific, Cat. #150239), and subjected to static culture for 1 day to induce the formation of embryoid bodies. As a control, the formation of embryoid bodies was performed for 0 days or 4 days.\nAfter static culture had been performed for 1 day, iPS cell embryoid bodies were collected. […] As a control, osteoblastic differentiation induction described in (1-4) was performed after the embryoid body formation described in (1-2) without mesoderm differentiation induction. For the evaluation of mesoderm differentiation induction, immunofluorescent staining using a mesodermal marker Brachyury was performed."}, "[2]": {"test_system": "human iPS cell embryoid bodies (409B2)", "assay": "Mesoderm induction ratio by immunofluorescent staining of Brachyury", "settings": "embryoid body formation 1 day; mesoderm differentiation induction medium with or free of CHIR99021 or cyclopamine; the label names the compound(s) present; 17% in the absence of both", "method": "The immunostaining was pertained using: anti-Brachyury polyclonal antibody (AF2085, R&D SYSTEMS) as a primary antibody; Alexa Fluor594-labeled anti-goat IgG antibody (Thermo Fisher Scientific) as a secondary antibody; and Hoechst 33258 (Thermo Fisher Scientific) for nuclear staining.\nThe mesoderm induction ratio was determined from the ratio of Brachyury-positive embryoid bodies in all embryoid bodies present in an immunostaining photographic image."}, "[3]": {"test_system": "human iPS cell-derived mesoderm cell constructs", "assay": "Osteoblastic differentiation induction with small-molecule compound, histochemical observation of mineralization (von Kossa)", "method": "As a control, non-adherent culture was performed without shaking. The medium was changed every 7 days. The resultant sample was subjected to immunofluorescent staining, specifically hematoxylin and eosin (H&E) staining, von Kossa staining, or Osteocalcin, and subjected to histochemical observation."}, "[4]": {"test_system": "human iPS cell embryoid bodies", "assay": "Comparative Example: retinoic acid culture instead of mesoderm induction, then osteoblastic differentiation induction; shape of cell construct", "settings": "ES medium 2 days, then 2 days with 1 µM retinoic acid, then osteoblastic differentiation induction without mesoderm induction step", "method": "iPS cells were obtained in accordance with the method described in (1-1) above, and subjected to culture in an ES medium corresponding to (1-2) above for 2 days. The resultant embryoid bodies of the iPS cells were collected, and further cultured for 2 days using the above-mentioned ES medium having blended therein 1 µM retinoic acid (all-trans retinoic acid: Sigma). After that, the step of inducing differentiation into osteoblasts described in (1-4) above was performed without the step of inducing differentiation into mesoderm cells described in (1-3) above."}},
  "note": "Entries after “also recorded” stand apart in the source; their conditions may differ.",
  "data": [
    {"compound": "Cc1c[nH]c(-c2cnc(NCCNc3ccc(C#N)cn3)nc2-c2ccc(Cl)cc2Cl)n1", "note": "[CHIR99021]", "values": [
      {"measurement": "expression of the mesodermal marker (Brachyury), immunofluorescent staining", "setting": "[1]", "result": "marked expression of Brachyury was similarly found"},
      {"measurement": "mesoderm induction ratio (ratio of Brachyury-positive embryoid bodies in all embryoid bodies)", "setting": "[2]", "result": 57, "unit": "%"}
    ]},
    {"compound": "CC1=C2C[C@H]3[C@@H](CC=C4C[C@@H](O)CC[C@@]43C)[C@@H]2CC[C@]12O[C@@H]1C[C@H](C)CN[C@H]1[C@H]2C", "note": "[cyclopamine]", "values": [
      {"measurement": "expression of the mesodermal marker (Brachyury), immunofluorescent staining", "setting": "[1]", "result": "the expression of Brachyury was found, though not as marked as in the presence of CHIR99021"}
    ]},
    {"compound": "CC(=O)N(O)CCCCCNC(=O)CCC(=O)N(O)CCCCCNC(=O)CCC(=O)N(O)CCCCCN", "note": "[desferrioxamine]", "values": [
      {"measurement": "mineralization of cell construct on day 30", "setting": "[3]; day 30 of the osteoblastic differentiation induction, 10 μM desferrioxamine", "result": "markedly mineralized cell construct"},
      {"measurement": "mineralization of osteoblast construct", "setting": "[3]; osteoblastic differentiation induction medium supplemented with 10 μM desferrioxamine or 1 μM simvastatin, non-adherent shaking culture", "result": "markedly mineralized osteoblast construct"}
    ]},
    {"compound": "CC1=C(/C=C/C(C)=C/C=C/C(C)=C/C(=O)O)C(C)(C)CCC1", "note": "[retinoic acid, all-trans retinoic acid]", "values": [
      {"measurement": "shape of resultant osteoblast-like cell construct", "setting": "[4]", "result": "not solid cell constructs, but were bag-like; also recorded: hollow bag-like (sac-like) shape"}
    ]}
  ]
}
